Measurements reported in paper PMC12951562, “SH2scan: Mapping SH2 Domain-Ligand Binding Selectivity for Inhibitors and Degraders” (Journal of Medicinal Chemistry, 2026).
Where two headings read alike, the source gives them in different places. Non-standard residues stand in square brackets, D forms with d. Residues, ends and D or L forms follow the SMILES beside them. *: point of attachment. pY = N[C@@H](Cc1ccc(OP(=O)(O)O)cc1)C(=O)O; Caffeoyl = O=C(/C=C/c1ccc(O)c(O)c1)*

Assays:
Assay in all cases: biochemical
Format in all cases: binding
TNS4 = molecular target: T1, TNS4 (Homo sapiens, UniProt Q8IZW8); settings: for remaining activity at 10 µM: read-out: percent of DMSO vehicle control
T1 construct: made in house; host or cells: HEK293 (transient transfection), unpurified extract
T1 sequence (Q8IZW8 19-715): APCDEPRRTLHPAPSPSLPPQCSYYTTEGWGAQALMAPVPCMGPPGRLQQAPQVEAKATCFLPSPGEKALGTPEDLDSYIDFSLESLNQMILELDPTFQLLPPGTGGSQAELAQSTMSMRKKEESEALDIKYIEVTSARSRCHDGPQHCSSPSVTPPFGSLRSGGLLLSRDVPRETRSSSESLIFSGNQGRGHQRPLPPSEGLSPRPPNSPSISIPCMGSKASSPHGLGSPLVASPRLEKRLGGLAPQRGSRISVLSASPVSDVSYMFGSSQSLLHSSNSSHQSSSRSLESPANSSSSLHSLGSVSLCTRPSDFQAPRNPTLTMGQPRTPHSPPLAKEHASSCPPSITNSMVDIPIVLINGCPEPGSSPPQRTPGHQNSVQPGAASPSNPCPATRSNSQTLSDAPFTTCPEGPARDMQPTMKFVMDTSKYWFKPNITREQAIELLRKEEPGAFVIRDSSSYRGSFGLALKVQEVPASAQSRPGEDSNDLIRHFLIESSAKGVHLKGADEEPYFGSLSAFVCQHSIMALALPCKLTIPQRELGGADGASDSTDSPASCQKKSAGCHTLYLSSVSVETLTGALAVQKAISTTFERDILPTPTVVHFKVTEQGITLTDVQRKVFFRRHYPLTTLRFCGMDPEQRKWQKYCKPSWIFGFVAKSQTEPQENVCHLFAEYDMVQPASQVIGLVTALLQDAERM

CBLC = molecular target: T2, CBLC (Homo sapiens, UniProt Q9ULV8); settings: for percent of DMSO vehicle control at 10 µM / remaining activity at 10 µM: read-out: percent of DMSO vehicle control
T2 construct: the DNA-tagged SH2 domain concentrations used in this study were <0.1 nM; made in house; host or cells: HEK293 (transient transfection; unpurified extract)
T2 sequence (Q9ULV8 219-321 limits assumed): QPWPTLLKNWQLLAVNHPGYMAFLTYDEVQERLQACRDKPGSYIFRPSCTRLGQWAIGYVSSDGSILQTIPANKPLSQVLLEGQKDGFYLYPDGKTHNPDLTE

PTPN6(SH2dom.C-term.) = molecular target: T3, PTPN6(SH2dom.C-term.) (Homo sapiens, UniProt P29350); settings: for remaining activity at 10 µM: read-out: percent of DMSO vehicle control
T3 construct: SH2dom.C-term. denotes SH2 domain closest to C-terminus of protein; made in house; host or cells: HEK293 (transient transfection, unpurified extract)
T3 sequence (P29350 110-213 limits assumed): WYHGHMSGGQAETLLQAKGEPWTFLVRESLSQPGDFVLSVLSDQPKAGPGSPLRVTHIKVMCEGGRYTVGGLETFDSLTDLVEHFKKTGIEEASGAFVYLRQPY

SHF = molecular target: T4, SHF (Homo sapiens, UniProt Q7M4L6); settings: for remaining activity at 10 µM: read-out: percent of DMSO vehicle control
T4 construct: made in house; host or cells: HEK293 (transient transfection), unpurified extract
T4 sequence (Q7M4L6 1-423): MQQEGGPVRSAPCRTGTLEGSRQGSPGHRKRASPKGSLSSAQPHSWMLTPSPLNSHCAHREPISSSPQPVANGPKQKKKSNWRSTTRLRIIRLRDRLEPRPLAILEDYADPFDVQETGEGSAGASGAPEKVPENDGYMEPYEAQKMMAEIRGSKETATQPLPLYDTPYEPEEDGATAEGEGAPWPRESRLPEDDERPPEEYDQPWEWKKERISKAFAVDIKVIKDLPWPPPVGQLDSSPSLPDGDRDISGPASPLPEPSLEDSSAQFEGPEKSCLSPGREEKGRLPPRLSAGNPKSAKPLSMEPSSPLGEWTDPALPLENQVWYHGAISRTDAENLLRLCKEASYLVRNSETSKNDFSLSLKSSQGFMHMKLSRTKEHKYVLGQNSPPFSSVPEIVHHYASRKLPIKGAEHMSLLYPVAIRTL

STAT4 = molecular target: T5, STAT4 (Homo sapiens, UniProt Q14765); settings: for percent of DMSO vehicle control: primary screen, 10 μM
T5 construct: made in house; host or cells: HEK293 (transient transfection), unpurified extract
T5 sequence (Q14765 1-748): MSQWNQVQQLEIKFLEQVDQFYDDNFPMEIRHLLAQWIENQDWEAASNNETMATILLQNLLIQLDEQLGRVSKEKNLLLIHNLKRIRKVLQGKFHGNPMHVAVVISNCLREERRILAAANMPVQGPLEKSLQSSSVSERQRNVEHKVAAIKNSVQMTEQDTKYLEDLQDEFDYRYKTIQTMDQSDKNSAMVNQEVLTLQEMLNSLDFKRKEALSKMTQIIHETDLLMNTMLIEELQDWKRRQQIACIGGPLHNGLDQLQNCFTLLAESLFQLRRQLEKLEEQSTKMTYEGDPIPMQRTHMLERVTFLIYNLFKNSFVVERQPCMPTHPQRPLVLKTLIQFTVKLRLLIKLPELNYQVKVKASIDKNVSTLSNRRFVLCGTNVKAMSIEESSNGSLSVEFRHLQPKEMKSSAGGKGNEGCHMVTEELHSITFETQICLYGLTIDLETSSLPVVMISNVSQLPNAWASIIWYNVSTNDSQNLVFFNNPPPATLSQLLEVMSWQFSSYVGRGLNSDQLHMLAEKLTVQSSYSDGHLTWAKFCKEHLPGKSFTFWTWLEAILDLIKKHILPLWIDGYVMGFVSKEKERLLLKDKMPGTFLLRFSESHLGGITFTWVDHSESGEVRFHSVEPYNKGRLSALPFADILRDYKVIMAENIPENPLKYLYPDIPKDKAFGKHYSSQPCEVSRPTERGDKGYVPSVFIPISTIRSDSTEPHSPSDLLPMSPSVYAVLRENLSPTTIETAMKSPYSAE

ITK = molecular target: T6, ITK (Homo sapiens, UniProt Q08881); settings: for percent of DMSO vehicle control: primary screen, 10 μM
T6 construct: the DNA-tagged SH2 domain concentrations used in this study were <0.1 nM; made in house; host or cells: HEK293 (transient transfection, unpurified extract)
T6 sequence (Q08881 239-338 limits assumed): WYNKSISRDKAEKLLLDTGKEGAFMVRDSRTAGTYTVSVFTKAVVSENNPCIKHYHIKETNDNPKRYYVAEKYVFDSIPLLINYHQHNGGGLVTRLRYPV

CC[C@H](C)[C@H](NC(=O)[C@H](CO)NC(=O)[C@H](CC(C)C)NC(=O)[C@H](CCCNC(=N)N)NC(=O)[C@H](CO)NC(=O)[C@H](CS)NC(C)=O)C(=O)N[C@@H](Cc1ccc(OP(=O)(O)O)cc1)C(=O)N[C@@H](CC(=O)O)C(=O)N[C@@H](CC(N)=O)C(=O)N[C@H](C(=O)N1CCC[C@H]1C(=O)NCC(N)=O)C(C)C [Ac-CSRLSIpYDNVPG-NH2] (Ac-CSRLSI[pY]DNVPG-NH2)
Kd (TNS4): 28.3 ± 4.96 nM

CC[C@H](C)[C@H](NC(=O)[C@H](CCC(=O)O)NC(=O)[C@H](CCC(=O)O)NC(=O)[C@H](Cc1ccc(OP(=O)(O)O)cc1)NC(C)=O)C(=O)N[C@@H](CCC(=O)O)C(N)=O [Ac-pYEEIE-NH2] (Ac-[pY]EEIE-NH2)
percent of DMSO vehicle control (CBLC; primary screen, 10 μM): 97.4±7.1%
percent of DMSO vehicle control (TNS4; primary screen, 10 μM): 61.9±0.0%
percent of DMSO vehicle control (PTPN6(SH2dom.C-term.); primary screen, 10 μM): 110.0%
percent of DMSO vehicle control (SHF; primary screen, 10 μM): 60.2%
percent of DMSO vehicle control (STAT4): 106.6%
percent of DMSO vehicle control (ITK): 122.5%

CC(=O)N[C@@H](Cc1ccc(CP(=O)(O)O)cc1)C(=O)NC1(C(=O)N[C@@H](CC(N)=O)C(=O)NCCCc2c(O)ccc3ccccc23)CCCCC1 [CGP78850]
percent of DMSO vehicle control at 10 µM (CBLC): 128 ± 29.6%
Kd (TNS4): 508 nM
remaining activity at 10 µM (TNS4): 5 ± 1.1%
remaining activity at 10 µM (PTPN6(SH2dom.C-term.)): 130.9 ± 0.8%
remaining activity at 10 µM (SHF): 77.1 ± 2.6%
percent of DMSO vehicle control (STAT4): 91.4±14.0%
percent of DMSO vehicle control (ITK): 113.6±8.8%

CC[C@H](C)[C@H](NC(=O)[C@H](CCC(=O)O)NC(=O)[C@H](CCC(=O)O)NC(=O)[C@H](Cc1ccc(OP(=O)(O)O)cc1)NC(=O)/C=C/c1ccc(O)c(O)c1)C(=O)N[C@@H](CCC(=O)O)C(=O)O [Caffeic acid-pYEEIE] (Caffeoyl-[pY]EEIE-OH)
Kd (CBLC): 37 ± 23 nM
percent of DMSO vehicle control at 10 µM (CBLC): 0.1%
Kd (TNS4): 2600 ± 740 nM
remaining activity at 10 µM (TNS4): 3.1 ± 0.7%
remaining activity at 10 µM (PTPN6(SH2dom.C-term.)): 114 ± 11%
Kd (SHF): 27200 ± 8880 nM
remaining activity at 10 µM (SHF): 50.6 ± 4.3%
Kd (STAT4): 4400 ± 370 nM
percent of DMSO vehicle control (STAT4): 8.8±0.4%
Kd (ITK): 570 ± 630 nM
percent of DMSO vehicle control (ITK): 3.1±0.3%

O=C(CCl)Nc1cccc(CNC(=O)[C@H](Cc2ccc(OP(=O)(O)O)cc2)NC(=O)Cc2ccc(F)cc2)c1 [MN551]
remaining activity at 10 µM (CBLC; primary screen, 10 μM): 43 ± 3.8%
KD (TNS4; dose-response): No Hit
remaining activity at 10 µM (TNS4; primary screen, 10 μM): 25.9%
remaining activity at 10 µM (PTPN6(SH2dom.C-term.); primary screen, 10 μM): 147%
remaining activity at 10 µM (SHF; primary screen, 10 μM): 103%
KD (STAT4; dose-response): No Hit
percent of DMSO vehicle control (STAT4): 22±0.8%
percent of DMSO vehicle control (ITK): 51.4±1.1%

NC(=O)CC[C@H](NC(=O)[C@@H]1CC[C@@H]2CCN(C(=O)CCCCCC#Cc3cccc4c3CN(C3CCC(=O)NC3=O)C4=O)C[C@H](NC(=O)c3cc4cc(C(F)(F)P(=O)(O)O)ccc4[nH]3)C(=O)N21)C(=O)NC(c1ccccc1)c1ccccc1 (some centres unmarked) [SD-36]
percent of DMSO vehicle control at 10 µM (CBLC): 113 ± 4.5%
remaining activity at 10 µM (TNS4): 58.1 ± 8.9%
remaining activity at 10 µM (PTPN6(SH2dom.C-term.)): 108 ± 6.9%
remaining activity at 10 µM (SHF): 100 ± 5.2%
Kd (STAT4; dose-response): 120 ± 110 nM
percent of DMSO vehicle control (STAT4): 1.1±0.2%
percent of DMSO vehicle control (ITK): 94.0±11.1%

CC(=O)N1CC[C@H]2CC[C@@H](C(=O)N[C@@H](CCC(N)=O)C(=O)NC(c3ccccc3)c3ccccc3)N2C(=O)[C@@H](NC(=O)c2cc3cc(C(F)(F)P(=O)(O)O)ccc3[nH]2)C1 [SI-109]
percent of DMSO vehicle control at 10 µM (CBLC): 106%
remaining activity at 10 µM (TNS4): 110%
remaining activity at 10 µM (PTPN6(SH2dom.C-term.)): 119%
remaining activity at 10 µM (SHF): 78.9 ± 3%
Kd (STAT4): 240 ± 106 nM
percent of DMSO vehicle control (STAT4): 7.3±0.1%
percent of DMSO vehicle control (ITK): 124.2%

C/C(=C\C(=O)N[C@H](C(=O)N1CCC[C@H]1C(=O)N(c1ccccc1)c1ccc(I)cc1)C(C)(C)C)c1ccc(OP(=O)(O)O)cc1 [STAT6-IN-1]
Kd (CBLC; dose-response, read-out: KD): 1800 ± 490 nM
remaining activity at 10 µM (CBLC; primary screen, 10 μM): 3.3 ± 0.1%
Kd (TNS4; dose-response, read-out: KD): 1800 ± 420 nM
remaining activity at 10 µM (TNS4; primary screen, 10 μM): 14 ± 3.4%
remaining activity at 10 µM (PTPN6(SH2dom.C-term.); primary screen, 10 μM): 45.8 ± 7.8%
remaining activity at 10 µM (SHF; primary screen, 10 μM): 43.6 ± 7.2%
Kd (STAT4; dose-response, read-out: KD): 220 ± 67 nM
percent of DMSO vehicle control (STAT4): 0.0±0.0%
Kd (ITK; dose-response, read-out: KD): 10300 nM
percent of DMSO vehicle control (ITK): 0.0±0.0%

CC(C)(C)[C@H](NC(=O)/C=C/c1ccc(OP(=O)(O)O)cc1)C(=O)N1CCC[C@H]1C(=O)N(c1ccccc1)c1ccc(I)cc1 [STAT6-IN-3]
Kd (CBLC; dose-response, read-out: KD): 2800 ± 520 nM
remaining activity at 10 µM (CBLC; primary screen, 10 μM): 34.7 ± 1.3%
KD (TNS4; dose-response): No Hit
remaining activity at 10 µM (TNS4; primary screen, 10 μM): 21.6 ± 25.3%
remaining activity at 10 µM (PTPN6(SH2dom.C-term.); primary screen, 10 μM): 136 ± 30.6%
remaining activity at 10 µM (SHF; primary screen, 10 μM): 89.5 ± 4.6%
Kd (STAT4; dose-response, read-out: KD): 520 ± 270 nM
percent of DMSO vehicle control (STAT4): 0.2±0.3%
percent of DMSO vehicle control (ITK): 0±54.7%

O=C(COc1ccc2cc(C(=O)Nc3ccccc3)ccc2c1)NCc1ccc(OP(=O)(O)O)c(OP(=O)(O)O)c1 [Stafib-1]
remaining activity at 10 µM (CBLC; primary screen, 10 μM): 100%
KD (TNS4; dose-response): No Hit
remaining activity at 10 µM (TNS4; primary screen, 10 μM): 32.7%
remaining activity at 10 µM (PTPN6(SH2dom.C-term.); primary screen, 10 μM): 179%
remaining activity at 10 µM (SHF; primary screen, 10 μM): 79.7 ± 9.4%
percent of DMSO vehicle control (STAT4): 57.6±15.3%
KD (ITK; dose-response): No Hit
percent of DMSO vehicle control (ITK): 0±61.0%
